Measured values reported in paper PMC9837865 (Pharmacology, biochemistry, and behavior, 2022).
Where two headings read alike, the source gives them in different places.

Legend:
hCB2 receptor [1] = molecular target: T1, hCB2 receptor (Homo sapiens, UniProt P34972); assay: Agonist-stimulated [35S]GTPγS binding, hCB2 HEK293 membranes; details: for greater potency at hCB2 receptors than at hCB1 receptors: [35S]GTPγS potency ratio
hCB1 receptor [2] = molecular target: T2, hCB1 receptor (Homo sapiens, UniProt P21554); assay: [3H]CP55,940 competition binding at hCB1 in HEK293 cell membranes; details: for Ki: value in parenthesis
T2 sequence (P21554 whole entry): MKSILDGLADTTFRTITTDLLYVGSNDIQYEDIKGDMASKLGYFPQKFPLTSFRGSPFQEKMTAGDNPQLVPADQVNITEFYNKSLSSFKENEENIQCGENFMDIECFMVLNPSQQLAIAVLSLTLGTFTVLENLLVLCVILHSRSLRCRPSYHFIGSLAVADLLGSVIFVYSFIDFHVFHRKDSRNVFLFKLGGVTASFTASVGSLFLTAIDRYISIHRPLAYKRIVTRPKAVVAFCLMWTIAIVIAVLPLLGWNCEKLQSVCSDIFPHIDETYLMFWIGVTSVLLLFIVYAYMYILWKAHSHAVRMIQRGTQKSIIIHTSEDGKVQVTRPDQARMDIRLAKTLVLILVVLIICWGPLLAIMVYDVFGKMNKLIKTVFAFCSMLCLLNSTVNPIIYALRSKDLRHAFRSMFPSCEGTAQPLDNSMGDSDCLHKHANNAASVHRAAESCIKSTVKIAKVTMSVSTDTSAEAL

male ICR mice [3] = assay: Rectal temperature time course
hCB2 receptor [4] = molecular target: T1, hCB2 receptor; assay: [3H]CP55,940 competition binding at hCB2 in HEK293 cell membranes; details: for greater affinity at hCB2 receptors than at hCB1: binding affinity ratio hCB2 over hCB1
hCB1 receptor [5] = molecular target: T2, hCB1 receptor; assay: Agonist-stimulated [35S]GTPγS binding, hCB1 HEK293 membranes
male ICR mice [6] = assay: Rectal temperature dose-effect; details: for maximal hypothermia, difference from that produced by Δ9-THC: across the dose range tested
[7] = radiotelemetry, 6-h period; ref Sparkes et al., 2022; cited from earlier work
[8] = [35S]GTPγS Turnover CB2 EC50, value in parenthesis
[9] = [35S]GTPγS Turnover CB2 pEC50, pEC50 ± SEM
[10] = CB1 Ki, [3H]CP55,940 displacement
[11] = 3 mg/kg i.p., compared to vehicle at same timepoint
[12] = CB2 Ki, [3H]CP55,940 displacement, value in parenthesis
[13] = 10 mg/kg i.p., compared to vehicle at same timepoint
[14] = 100 mg/kg i.p., compared to vehicle at same timepoint
[15] = [3H]CP55,940 displacement, pKi ± SEM

T1 sequence (P34972 whole entry): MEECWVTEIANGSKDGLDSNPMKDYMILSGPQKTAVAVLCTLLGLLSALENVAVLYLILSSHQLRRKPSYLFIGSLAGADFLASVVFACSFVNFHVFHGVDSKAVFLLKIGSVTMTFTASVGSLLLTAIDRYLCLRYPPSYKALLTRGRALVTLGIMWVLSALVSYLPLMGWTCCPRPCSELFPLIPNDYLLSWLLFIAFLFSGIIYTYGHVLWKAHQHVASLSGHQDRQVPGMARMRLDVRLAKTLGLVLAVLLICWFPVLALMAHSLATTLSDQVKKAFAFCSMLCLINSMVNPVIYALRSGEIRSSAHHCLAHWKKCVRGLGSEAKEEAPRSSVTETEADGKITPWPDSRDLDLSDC

SMILES	[35S]GTPγS Turnover CB2 Emax (hCB2 receptor [1])	EC50 (hCB2 receptor [1]; [8])	Ki (hCB1 receptor [2]; [10])	duration of significant hypothermic effect (male ICR mice [3]; [11])	Ki (hCB2 receptor [4]; [12])	EC50 (hCB1 receptor [5])	[35S]GTPγS Turnover CB1 Emax (hCB1 receptor [5])	maximal hypothermia, difference from that produced by Δ9-THC (male ICR mice [6])	greater potency at hCB2 receptors than at hCB1 receptors (hCB2 receptor [1])	greater affinity at hCB2 receptors than at hCB1 (hCB2 receptor [4])	further results
CCOC(=O)C(NC(=O)c1nn(CCCCCF)c2ccccc12)C(C)(C)C (stereo not drawn) [5F-EDMB-PINACA, ethyl 2-(1-(5-fluoropentyl)-1H-indazole-3-carboxamido)-3,3-dimethylbutanoate]	161 ± 8.36 3 % stimulation over basal	0.442 nM	0.378 nM	3 h	0.312 nM	1.6 nM	387 ± 69.0 ^† 3 % stimulation over basal	–	–	–	EC50 (hCB2 receptor [1]; [9]): 0.437 nM
COC(=O)[C@@H](NC(=O)c1cn(CCCCCF)c2ccccc12)C(C)(C)C [5F-MDMB-PICA, methyl (2S)-2-{[1-(5-fluoropentyl)-1H-indole-3-carbonyl]amino}-3,3-dimethylbutanoate]	189 ± 25.2 3 % stimulation over basal	1.65 nM	1.25 nM	7 h	0.437 nM	5.07 nM	380 ± 27.4 ^^ 3 % stimulation over basal	–	–	–	–
COC(=O)[C@@H](NC(=O)c1cn(CCCCCF)c2ccccc12)C(C)C [5F-MMB-PICA, methyl (2S)-2-[[1-(5-fluoropentyl)indole-3-carbonyl]amino]-3-methylbutanoate]	77.8 ± 13.3 3 % stimulation over basal	8.19 nM	6.45 nM	–	3.4 nM	27 nM	295 ± 21.2 ^† 3 % stimulation over basal	≤ 1.5 °C	–	–	duration of significant hypothermic effect (male ICR mice [3]; [13]): 3 h
CCCCn1nc(C(=O)N[C@@H](Cc2ccccc2)C(N)=O)c2ccccc21 [APP-BINACA, N-[(2S)-1-amino-1-oxo-3-phenylpropan-2-yl]-1-butylindazole-3-carboxamide]	83.2 ± 2.72 3 % stimulation over basal	2.24 nM	107 nM	–	9.34 nM	344 nM	180 ± 25.1 3 % stimulation over basal	–	153 fold	12 fold	hypothermia [7]: failed to produce any hypothermia; duration of significant hypothermic effect (male ICR mice [3]; [14]): 4 h
CC1(C)C(C(=O)c2cn(Cc3ccc(F)cc3)c3ccccc23)C1(C)C [FUB-144, (1-(4-fluorobenzyl)-1H-indol-3-yl)(2,2,3,3-tetramethylcyclopropyl)methanone]	194 ± 8.45 3 % stimulation over basal	4.61 nM	27.2 nM	–	1.19 nM	90.6 nM	218 ± 31.5 4 % stimulation over basal	≤ 1.5 °C	20 fold	23 fold	duration of significant hypothermic effect (male ICR mice [3]; 20 mg/kg i.p.): 1 h; Ki (hCB2 receptor [4]; CB2 pKi, [3H]CP55,940 displacement, pKi ± SEM): 1.17 nM
O=C(NC12CC3CC(CC(C3)C1)C2)c1nn(Cc2ccc(F)cc2)c2ccccc12 [FUB-AKB48, N-((3s,5s,7s)-adamantan-1-yl)-1-(4-fluorobenzyl)-1H-indazole-3-carboxamide]	131 ± 16.5 4 % stimulation over basal	–	–	–	–	–	368 ± 55.5 ^‡ 4 % stimulation over basal	≤ 1.5 °C	16 fold	–	[35S]GTPγS Turnover CB2 pEC50 (hCB2 receptor [1]; pEC50 ± SEM): 9.37 ± 0.318; EC50 (hCB2 receptor [1]; read-out: [35S]GTPγS Turnover CB2 EC50, value in parenthesis): 0.424 nM; CB1 pKi (hCB1 receptor [2]; [15]): 8.89 ± 0.265; Ki (hCB1 receptor [2]; read-out: CB1 Ki, [3H]CP55,940 displacement): 1.3 nM; duration of significant hypothermic effect (male ICR mice [3]; [13]): ≤ 1 h; CB2 pKi (hCB2 receptor [4]; [15]): 9.08 ± 0.0188; Ki (hCB2 receptor [4]; read-out: CB2 Ki, [3H]CP55,940 displacement, value in parenthesis): 0.823 nM; [35S]GTPγS Turnover CB1 pEC50 (hCB1 receptor [5]; pEC50 ± SEM): 8.16 ± 0.162; EC50 (hCB1 receptor [5]; read-out: [35S]GTPγS Turnover CB1 EC50, value in parenthesis): 6.94 nM
C=CCCCn1nc(C(=O)NC(C(=O)OC)C(C)(C)C)c2ccccc21 (stereo not drawn) [MDMB-4en-PINACA, methyl 3,3-dimethyl-2-{[1-(pent-4-en-1-yl)-1H-indazole-3-carbonyl]amino}butanoate]	63.6 ± 9.95 3 % stimulation over basal	1.34 nM	1.4 nM	4 h	0.213 nM	3.3 nM	304 ± 42.8 ^‡ 3 % stimulation over basal	–	–	7 fold	–
C=CCCCn1cc(C(=O)NC(C(=O)OC)C(C)C)c2ccccc21 (stereo not drawn) [MMB-4en-PICA, methyl 3-methyl-2-[(1-pent-4-enylindole-3-carbonyl)amino]butanoate]	77.6 ± 7.17 5 % stimulation over basal	12.4 nM	39 nM	–	15.6 nM	60.7 nM	298 ± 31.9 ^‡ 4 % stimulation over basal	≤ 1.5 °C	–	–	duration of significant hypothermic effect (male ICR mice [3]; 60 mg/kg i.p.): 5 h
COC(=O)C(NC(=O)c1cn(Cc2ccc(F)cc2)c2ccccc12)C(C)C (stereo not drawn) [MMB-FUBICA, methyl 2-(1-(4-fluorobenzyl)-1H-indole-3-carboxamido)-3-methylbutanoate]	52.1 ± 6.73 3 % stimulation over basal	22.1 nM	12 nM	–	22.5 nM	59.7 nM	278 ± 29.3 ^† 3 % stimulation over basal	≤ 1.5 °C	–	–	EC50 (hCB2 receptor [1]; [9]): 22.4 nM; greater affinity for CB1 than CB2 (hCB1 receptor [2]; binding affinity ratio CB1 over CB2): approximately 2 fold; duration of significant hypothermic effect (male ICR mice [3]; 6 mg/kg i.p.): 2 h
CCCCCc1cc(O)c2c(c1)OC(C)(C)[C@@H]1CCC(C)=C[C@@H]21 [Δ^9-THC, Δ^9-tetrahydrocannabinol, reference compound]	–	–	–	–	–	–	–	–	–	–	lowest dose that decreased temperature (male ICR mice [6]; i.p., compared to vehicle): 30 mg/kg; time of peak hypothermic effect post-injection (male ICR mice [3]; 100 mg/kg i.p.): 1 to 3 h; duration of significant hypothermic effect (male ICR mice [3]; [14]): 8 h; time of peak hypothermic effects (male ICR mice [3]; single dose of each compound, as summarised in the discussion): 2 h
